This is an account of results in ChEMBL document CHEMBL1201862, “PubChem BioAssay data set” (2004).

The target in test [1] is Dual specificity tyrosine-phosphorylation-regulated kinase 1A (Rattus norvegicus, UniProt Q63470). It is filed as biochemical, Homo sapiens.
In test [2] the target is Voltage-dependent T-type calcium channel subunit alpha-1H (Homo sapiens, UniProt O95180). It counts as functional.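 Note: channel activity triggered by adding a high calcium stimulation buffer.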
Test [3] deals with BJ. The experiment in a line: BJ-TERT fibroblast viability loss – cell-based, RAS-independent, luminescence, dose response (AID 1933). It counts as functional. As to conditions: Homo sapiens.
For test [4], the system named is BJ. The experiment in a line: cells. It counts as functional, cell-based. The note with it: Homo sapiens.
Test [5] can be described thus: viability of HCT116 lacking mutant beta-catenin – cell-based, human colon tumor, dose response (AID 1045).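 Note: HCT116 colon tumor cells with beta catenin knocked out; cells exposed to compound for 60 hours.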 It is filed as functional.
Test [6] can be described thus: viability of PTEN-deleted HCT116 cells – cell-based, HCT116 PTEN knockout, dose response (AID 1047).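 Note: HCT116 colon tumor cells with PTEN knocked out; cells exposed to compound for 60 hours before readout; potency for loss of cell viability measured by luminescence.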 It is filed as functional.
For test [7], the system named is BJ. The experiment in a line: BJ-TERT-LT-ST fibroblast viability loss – cell-based, RAS-independent, luminescence, dose response (AID 1935).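 Note: BJ fibroblasts immortalized with TERT plus LT and ST oncogenes.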 It counts as functional. The note with it: Homo sapiens.
Test [8] in a line: DRD fibroblast viability loss – cell-based, non-viral oncogenic, luminescence, dose response (AID 1934). It is filed as functional. As to conditions: Homo sapiens.
Test [9] is described as follows: blockers of HIV-1 ZM109 envelope-driven cell-cell fusion – HeLa effector, CEM target cells, luciferase, cherry-pick, dose response (AID 652058).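 Note: luciferase signal from HIV-1 Env mediated cell-cell fusion of effector and target cells.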 It counts as functional, cell-based.
Test [10] is described as follows: HIV-1 AD8 envelope cell-cell fusion blockers – cherry-pick, dose response (AID 652062).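 Note: luciferase signal from cell-cell fusion driven by HIV-1 clade B AD8 Env; potency is for inhibitors of fusion seen as a drop in luminescence.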 It is filed as functional, cell-based.
Test [11] in a line: blockers of HIV-1 envelope-mediated cell-cell fusion – cherry-pick, dose response (AID 652057). It is filed as functional, cell-based.
Test [12] in a line: off-target signal loss in HeLa-CEM21 co-culture – HeLa F-luc CTL cells, cherry-picked, counter-screen for HIV-1 Env fusion inhibitor project, dose response (AID 652040).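 Note: potency for signal decrease marking cytotoxic or nonspecific inhibition.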 It counts as functional, cell-based.
The nature of test [13]: P. falciparum Dd2 growth inhibitors, dose response, SYBR Green, cherry-picked samples (AID 1159567). It is filed as functional, cell-based.
A short description of test [14]: toxicity to human hepatoma HepG2 cells – cell-based, cherry-picked samples, cytotoxicity control, dose response (AID 1159577). It counts as functional.
Test [15] concerns the target T1, Lysine-specific demethylase 4C (Homo sapiens, UniProt Q9H3R0).
T1 sequence (Q9H3R0 whole entry): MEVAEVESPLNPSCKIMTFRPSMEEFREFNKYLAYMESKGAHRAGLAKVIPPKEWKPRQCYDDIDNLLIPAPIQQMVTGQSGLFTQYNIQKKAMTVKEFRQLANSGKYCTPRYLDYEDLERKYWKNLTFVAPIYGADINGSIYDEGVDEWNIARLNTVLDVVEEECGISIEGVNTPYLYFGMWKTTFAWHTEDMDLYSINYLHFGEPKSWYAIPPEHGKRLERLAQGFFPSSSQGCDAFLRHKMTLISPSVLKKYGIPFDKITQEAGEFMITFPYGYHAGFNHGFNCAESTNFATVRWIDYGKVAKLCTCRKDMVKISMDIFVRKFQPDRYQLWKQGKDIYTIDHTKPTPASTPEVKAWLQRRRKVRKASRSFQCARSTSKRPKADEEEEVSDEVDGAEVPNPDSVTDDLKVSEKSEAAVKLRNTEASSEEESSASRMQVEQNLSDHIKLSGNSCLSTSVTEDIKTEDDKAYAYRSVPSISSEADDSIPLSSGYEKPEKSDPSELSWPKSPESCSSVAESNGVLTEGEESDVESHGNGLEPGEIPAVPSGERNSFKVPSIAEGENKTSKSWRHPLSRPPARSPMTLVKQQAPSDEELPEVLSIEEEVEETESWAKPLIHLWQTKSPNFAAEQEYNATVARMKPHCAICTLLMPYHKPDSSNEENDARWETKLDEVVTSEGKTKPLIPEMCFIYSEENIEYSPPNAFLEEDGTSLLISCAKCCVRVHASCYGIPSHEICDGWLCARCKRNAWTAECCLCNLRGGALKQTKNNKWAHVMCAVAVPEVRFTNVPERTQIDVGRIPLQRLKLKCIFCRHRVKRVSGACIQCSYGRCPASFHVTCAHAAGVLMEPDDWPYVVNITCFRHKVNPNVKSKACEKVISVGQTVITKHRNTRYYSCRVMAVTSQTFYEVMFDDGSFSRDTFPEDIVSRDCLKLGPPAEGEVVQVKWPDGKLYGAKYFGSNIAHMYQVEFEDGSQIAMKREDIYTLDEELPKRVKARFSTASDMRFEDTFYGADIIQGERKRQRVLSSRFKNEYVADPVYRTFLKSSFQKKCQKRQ
Kind of test: inhibition of JMJD2C H3K9me3 demethylation – biochemical, DELFIA europium, cherry-picked samples, dose response (AID 488835). It is filed as functional.

Test [16] in a line: Luminescence Cell-Based Dose Response HTS to Identify Inhibitors of 5'UTR Stem-Loop Driven Prion Protein mRNA Translation in H4 Neuroglioblastoma Cells. [Related pubchem assays: 1827 (Project Summary), 1813 (Primary HTS)]. It counts as functional.
Test [17] can be described thus: luciferase reporter signal suppression in cells – H4 neuroglioma cells, luminescence, dose response (AID 1990). It counts as functional, cell-based. On the technique in general: In a reporter assay the amount or activity of a reporter protein is the signal.
Test [18] is described as follows: alpha-synuclein stem-loop luciferase translation blockers – H4 neuroglioma cells, luminescence, confirmation (AID 1988). It is filed as functional, cell-based.
Test [19] has as its target T2, Caspase-6 (Homo sapiens, UniProt P55212).
T2 sequence (P55212 whole entry): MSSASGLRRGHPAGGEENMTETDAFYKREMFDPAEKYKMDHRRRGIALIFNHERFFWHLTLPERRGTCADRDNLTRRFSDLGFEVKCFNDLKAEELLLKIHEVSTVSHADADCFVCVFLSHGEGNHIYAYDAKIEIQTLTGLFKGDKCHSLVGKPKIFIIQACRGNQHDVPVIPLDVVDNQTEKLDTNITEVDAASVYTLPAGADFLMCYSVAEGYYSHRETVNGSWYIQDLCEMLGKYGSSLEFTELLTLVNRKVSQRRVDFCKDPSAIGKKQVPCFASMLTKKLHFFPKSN
The experiment in a line: inhibition of CASP6 peptide cleavage – biochemical, VEID-R110 fluorescence, cherry-pick, dose response (AID 720632).

Test [20] in a line: cells. It is filed as functional.

The source made the active and inactive calls. A value given as a limit tells only on which side of the number the result lay.

Sequence of Voltage-dependent T-type calcium channel subunit alpha-1H (O95180 whole entry): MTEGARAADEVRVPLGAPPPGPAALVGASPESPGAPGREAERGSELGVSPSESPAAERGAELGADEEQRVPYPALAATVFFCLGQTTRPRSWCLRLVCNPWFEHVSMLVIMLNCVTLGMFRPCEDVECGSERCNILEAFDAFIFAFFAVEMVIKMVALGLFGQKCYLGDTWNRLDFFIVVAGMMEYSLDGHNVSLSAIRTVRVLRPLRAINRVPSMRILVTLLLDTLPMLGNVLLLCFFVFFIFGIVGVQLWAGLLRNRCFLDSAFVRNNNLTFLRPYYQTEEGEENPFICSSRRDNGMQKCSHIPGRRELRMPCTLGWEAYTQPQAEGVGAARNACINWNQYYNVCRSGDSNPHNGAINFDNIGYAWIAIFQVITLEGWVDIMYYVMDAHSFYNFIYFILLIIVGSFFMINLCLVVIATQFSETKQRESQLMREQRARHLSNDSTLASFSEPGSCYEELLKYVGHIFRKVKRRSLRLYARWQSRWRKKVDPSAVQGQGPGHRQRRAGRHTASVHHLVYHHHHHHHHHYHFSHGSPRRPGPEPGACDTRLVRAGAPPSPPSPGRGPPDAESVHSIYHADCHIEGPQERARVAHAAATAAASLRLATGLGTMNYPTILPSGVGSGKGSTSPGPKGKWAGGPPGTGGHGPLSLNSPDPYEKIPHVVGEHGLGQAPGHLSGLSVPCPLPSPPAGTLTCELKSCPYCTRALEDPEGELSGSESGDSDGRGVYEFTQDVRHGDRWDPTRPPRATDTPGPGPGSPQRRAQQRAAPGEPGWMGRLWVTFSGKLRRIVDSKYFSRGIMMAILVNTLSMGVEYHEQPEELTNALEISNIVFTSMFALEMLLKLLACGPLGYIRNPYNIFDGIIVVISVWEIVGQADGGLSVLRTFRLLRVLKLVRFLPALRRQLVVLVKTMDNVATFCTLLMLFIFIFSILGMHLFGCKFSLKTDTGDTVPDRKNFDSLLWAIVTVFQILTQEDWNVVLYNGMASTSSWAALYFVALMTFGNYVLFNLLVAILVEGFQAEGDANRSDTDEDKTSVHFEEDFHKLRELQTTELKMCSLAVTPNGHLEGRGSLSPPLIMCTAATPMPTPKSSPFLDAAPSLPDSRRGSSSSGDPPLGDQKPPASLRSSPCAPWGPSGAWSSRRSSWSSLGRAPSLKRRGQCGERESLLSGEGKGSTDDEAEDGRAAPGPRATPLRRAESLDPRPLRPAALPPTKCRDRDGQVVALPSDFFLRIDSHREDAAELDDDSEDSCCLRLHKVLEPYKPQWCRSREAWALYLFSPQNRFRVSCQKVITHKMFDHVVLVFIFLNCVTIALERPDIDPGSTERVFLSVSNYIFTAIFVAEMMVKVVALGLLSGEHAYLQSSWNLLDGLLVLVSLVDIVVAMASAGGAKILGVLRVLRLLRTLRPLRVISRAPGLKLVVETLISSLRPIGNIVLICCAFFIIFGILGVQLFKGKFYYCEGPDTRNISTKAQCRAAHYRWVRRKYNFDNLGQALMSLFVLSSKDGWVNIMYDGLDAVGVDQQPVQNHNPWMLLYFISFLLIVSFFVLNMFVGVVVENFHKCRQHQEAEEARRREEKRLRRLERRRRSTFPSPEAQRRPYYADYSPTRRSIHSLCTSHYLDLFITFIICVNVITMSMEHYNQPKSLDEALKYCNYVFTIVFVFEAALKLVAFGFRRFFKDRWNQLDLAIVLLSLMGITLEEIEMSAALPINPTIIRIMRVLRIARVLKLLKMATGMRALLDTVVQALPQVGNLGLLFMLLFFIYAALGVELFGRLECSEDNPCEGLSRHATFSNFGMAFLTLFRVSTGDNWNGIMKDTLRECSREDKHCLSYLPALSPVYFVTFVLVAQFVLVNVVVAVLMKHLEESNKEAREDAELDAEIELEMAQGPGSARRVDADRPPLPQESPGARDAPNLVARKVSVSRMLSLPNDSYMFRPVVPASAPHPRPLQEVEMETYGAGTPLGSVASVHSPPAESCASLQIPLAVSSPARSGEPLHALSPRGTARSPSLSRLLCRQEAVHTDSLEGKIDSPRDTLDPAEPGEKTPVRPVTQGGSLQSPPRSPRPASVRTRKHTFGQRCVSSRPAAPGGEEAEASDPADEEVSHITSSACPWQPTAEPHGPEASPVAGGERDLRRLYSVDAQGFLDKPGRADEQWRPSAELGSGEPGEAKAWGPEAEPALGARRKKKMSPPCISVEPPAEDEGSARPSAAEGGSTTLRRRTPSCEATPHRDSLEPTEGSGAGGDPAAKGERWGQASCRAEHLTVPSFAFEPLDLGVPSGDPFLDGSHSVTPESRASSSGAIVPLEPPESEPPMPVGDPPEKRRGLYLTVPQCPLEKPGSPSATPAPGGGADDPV

The term AC50 denotes the concentration at which the activity in the assay is half-maximal. For the molecule `O=C1/C(=C/c2ccc3c(c2)OCO3)Oc2cc(OCC(=O)N3CC(O)C[C@H]3C(=O)O)ccc21` (stereo partly specified), the AC50 in test [1] is 3.56 µM (active).

Usually EC50 stands for the midpoint of the concentration-response curve. Take `Cc1ccc(C(=O)NCc2ccc3c(c2)OCO3)cc1S(=O)(=O)N1CCCCC1`: the EC50 in test [2] is 5.23 µM (active).

Regarding `C[C@@]1(CO)[C@H](O)CC[C@@]2(C)[C@H]1CC[C@H]1C[C@@H]3C[C@@]12CC[C@]3(O)CO` [APHIDICOLIN], the EC50 in [3] was 38.6 µM (active); in [4], 28.6 µM (active); in test [5], 1.73 µM (active); in [6], 0.839 µM (active); in test [7], > 150 µM (not active); in test [8], > 150 µM (inconclusive).

Regarding `C=C1CCN([C@H](C(=O)OCc2cccc(C)c2)C(C)C)S(=O)(=O)c2ccccc21`, the half-maximal activity concentration (AC50) in [9] was 3.64 µM (active); in [10], 4.76 µM (active); in test [11], 1.99 µM (active); in test [12] it was 5.21 µM (active).

On to `O=C(C1CCCC1)N1C[C@@H]2N[C@H](C1)[C@@H]2c1ccc(/C=C/c2ccccc2)cc1`, for which the AC50 in [13] is 4.23 µM (active); in [14] it was 7.79 µM (active).

Take `Cc1ccccc1NC(=O)c1c(F)c(F)c(F)c(F)c1F`: the AC50 in test [15] is 29.3 µM (active).

With `CCN1C(=O)/C(=C\N2CCN(c3ccc(F)cc3)CC2)SC1=S`, the EC50 in test [3] was 81.2 µM (active); in [16] it was > 120 µM (not active); in test [17], 16.1 µM (active); in test [4], > 150 µM (not active); in test [18], > 120 µM (not active); in [7], > 150 µM (not active). Also, the EC50 in [8] is > 150 µM (not active).

As to `Cc1ccc2[nH]c(/C(C#N)=C\c3cc(O)ccc3[N+](=O)[O-])nc2c1`, in [1], the AC50 was 1.82 µM (active).

Turning to `O=C(CC(SCCO)c1ccc2c(c1)OCO2)c1ccco1` (stereo unspecified), the AC50 in test [1] was 0.563 µM (active).

As to `CCO/C=C1/C(=O)N(c2ccccc2OC)C(=O)c2ccccc21`, in [19], the AC50 was 13.9 µM (active).

On to `CC[C@@]1(C(=O)OC)N[C@H](CN(C)S(=O)(=O)c2ccc(-c3ccccc3)cc2)[C@@H]2C(=O)N(Cc3ccccc3)C(=O)[C@@H]21`, for which the half-maximal activity concentration (AC50) in test [9] is 2.28 µM (active); in [10] it was 2.54 µM (active); in test [11] it was 2.09 µM (active); in test [12], 2.61 µM (active).

The IC50 is the midpoint of a concentration-inhibition curve. As to `O=C(N/N=C/c1ccc(OC(=O)c2cccs2)cc1)c1ccccn1`, the IC50 in [20] was 5.37 µM (active).

Regarding `CCCCn1c(=O)c(C(=O)Nc2nnc(C(C)C)s2)c(O)c2ccccc21`, the 50% inhibitory concentration (IC50) in test [20] is 5.24 µM (active).
